Test system: recombinant rabies virus 1088 strain expressing Gaussia Luciferase (GLuc) (1088/GLuc)
Assay type: cell-based
Conditions: read-out: Anti-rabies activity

SMILES | IC50 [µM]
CC(C)CCN1C[C@H]2C[C@]3(C(=O)NCC(C)C)NC[C@H]2[C@H]1[C@H]3CCc1ccccc1 (relative stereo) [IF-635] | 10 to 30
COc1ccc(CNC(=O)C23N=CC4CC2CN(CC(C)C)C3C4CCc2ccccc2)cc1 (centres unmarked) [IIB-333] | < 5
CC(C)CC1C2CNC3(C(=O)NCCC(N)=O)C(C2)CN(Cc2cccc4ccccc24)C13 (centres unmarked) [IB-520] | < 5
CC(C)CCNC(=O)[C@@]12C[C@@H]3CN(Cc4ccc(F)cc4)[C@@H]([C@@H]3CN1)[C@H]2CC(C)C (relative stereo) [IF-585] | < 5
N=C(N)NCCCN1CC2CC3(C(=O)NCCc4ccccc4)NCC2C1C3Cc1ccc(O)cc1 (centres unmarked) [IF-359] | 10 to 30
CC(C)CNC(=O)[C@]12NC[C@@H]3C[C@H]1CN(Cc1ccc(F)cc1)[C@H]2[C@@H]3CC(C)C (relative stereo) [IB-630] | < 5
O=C(O)CCC1C2CNC3(C(=O)NCc4cccc5ccccc45)C(C2)CN(CCO)C13 (centres unmarked) [IB-425] | 10 to 30
O=C(NCc1ccc(F)cc1)[C@]12NC[C@@H]3C[C@H]1CN(CCO)[C@H]2[C@@H]3Cc1ccc(O)cc1 (relative stereo) [IB-549] | 10 to 30
CC(C)CNC(=O)[C@]12NC[C@@H]3C[C@H]1CN(CCC(=O)O)[C@H]2[C@@H]3CO (relative stereo) [IB-431] | 10 to 30
CC(C)CCN1C[C@H]2C[C@]3(C(=O)NCc4ccc(O)cc4)NC[C@H]2[C@H]1[C@H]3Cc1cccc2ccccc12 (relative stereo) [IF-465] | 10 to 30
NC(=O)CN1C[C@@H]2C[C@H]3CN[C@]2(C(=O)NCc2cccc4ccccc24)[C@@H]1[C@@H]3Cc1ccc(O)cc1 (relative stereo) [IB-83] | 10 to 30
COC(=O)N1CC2CC3CN(Cc4ccc(C)cc4)C(C2CC(C)C)C31C(=O)NCc1ccccc1 (centres unmarked) [IB-885] | 5 to 10
CC(C)C[C@@H]1[C@@H]2[C@@H]3CN[C@@]1(C(=O)NCc1cccc4ccccc14)C[C@@H]3CN2CC(C)C (relative stereo) [IF-726] | 10 to 30
O=C(NCc1ccc(F)cc1)[C@]12NC[C@@H]3C[C@H]1CN(CCc1ccccc1)[C@H]2[C@@H]3Cc1ccc(O)cc1 (relative stereo) [IB-642] | < 5
CC(C)CC[C@@H]1[C@@H]2CN[C@@]3(C(=O)NCCCNC(=N)N)[C@@H](C2)CN(CC2CCCCC2)[C@@H]13 (relative stereo) [IB-361] | 10 to 30
N=C(N)NCCC[C@@H]1[C@@H]2[C@@H]3CN[C@@]1(C(=O)NCc1cccc4ccccc14)C[C@@H]3CN2Cc1ccc(F)cc1 (relative stereo) [IF-297] | 10 to 30
CC(C)CN1C[C@H]2C[C@]3(C(=O)NCCc4ccccc4)NC[C@H]2[C@H]1[C@H]3Cc1ccc(O)cc1 (relative stereo) [IF-567] | 10 to 30
CC(C)CCNC(=O)[C@]12NC[C@@H]3C[C@H]1CN(Cc1ccccc1)[C@H]2[C@@H]3Cc1ccc(O)cc1 (relative stereo) [IB-678] | < 5
CC(C)CCNC(=O)[C@]12NC[C@@H]3C[C@H]1CN(CC1CCCCC1)[C@H]2[C@@H]3Cc1ccc(O)cc1 (relative stereo) [IB-648] | 10 to 30
O=C(NCc1ccc(F)cc1)[C@@]12C[C@@H]3CN(Cc4ccccc4)[C@@H]([C@@H]3CN1)[C@H]2Cc1ccccc1 (relative stereo) [IF-561] | < 5
CC(C)CC[C@@H]1[C@@H]2[C@@H]3CN[C@@]1(C(=O)NCC(C)C)C[C@@H]3CN2Cc1ccccc1 (relative stereo) [IF-411] | < 5
Cc1ccc(CN2CC3CC4CN(C(=O)OCc5ccccc5)C3(C(=O)NCc3ccccc3)C2C4CC(C)C)cc1 (centres unmarked) [IB-887] | 5 to 10
CC(C)CCN1C[C@H]2C[C@]3(C(=O)NCc4ccc(F)cc4)N=C[C@H]2[C@H]1[C@H]3Cc1ccccc1 (relative stereo) [IIF-327] | < 5

SMILES | IC50 [µM]
CCCCCCNC(=O)[C@]12NC[C@@H]3C[C@H]1CN(Cc1ccc(F)cc1)[C@H]2[C@@H]3Cc1ccc(O)cc1 (relative stereo) [IB-656] | < 5
CC(C)CC[C@@H]1[C@@H]2CN[C@@]3(C(=O)NCCC(N)=O)[C@@H](C2)CN(CCc2ccccc2)[C@@H]13 (relative stereo) [IB-342] | 10 to 30
N=C(N)NCCCNC(=O)[C@@]12C[C@@H]3CN(Cc4cccc5ccccc45)[C@@H]([C@@H]3CN1)[C@H]2Cc1ccccc1 (relative stereo) [IF-386] | 10 to 30
N=C(N)NCCCNC(=O)[C@]12NC[C@@H]3C[C@H]1CN(CC1CCCCC1)[C@H]2[C@@H]3CCc1ccccc1 (relative stereo) [IB-362] | < 5
Cc1cccc(CNC(=O)[C@@]23C[C@@H]4CN(CC(C)C)[C@@H]([C@@H]4CN2)[C@H]3Cc2ccccc2)c1 (relative stereo) [IF-15] | 10 to 30
CC(C)C[C@@H]1[C@@H]2[C@@H]3CN[C@@]1(C(=O)NCCO)C[C@@H]3CN2Cc1cccc2ccccc12 (relative stereo) [IF-604] | 10 to 30
CC(C)CC1C2C3C=NC1(C(=O)NCc1ccccc1)CC3CN2Cc1ccc(N(C)C)cc1 (centres unmarked) [IIF-94] | 5 to 10
CC(C)CCN1C[C@@H]2C[C@H]3CN[C@]2(C(=O)NCC(C)C)[C@@H]1[C@@H]3CC(C)C (relative stereo) [IB-753] | < 5
CC(C)CCN1CC2CC3(C(=O)NC(C)C)NCC2C1C3CCCNC(=N)N (centres unmarked) [IF-214] | 10 to 30
O=C(NCc1cccc2ccccc12)[C@@]12C[C@@H]3CN(Cc4ccc(O)cc4)[C@@H]([C@@H]3CN1)[C@H]2Cc1cccc2ccccc12 (relative stereo) [IF-779] | 10 to 30
CC(C)CNC(=O)[C@]12NC[C@@H]3C[C@H]1CN(CC(C)C)[C@H]2[C@@H]3CCc1ccccc1 (relative stereo) [IB-633] | < 5
CC(C)CC[C@@H]1[C@@H]2[C@@H]3CN[C@@]1(C(=O)NCCc1ccccc1)C[C@@H]3CN2Cc1ccccc1 (relative stereo) [IF-723] | 10 to 30
CC(C)CNC(=O)[C@]12NC[C@@H]3C[C@H]1CN(Cc1cccc4ccccc14)[C@H]2[C@@H]3CC(C)C (relative stereo) [IB-762] | < 5
CC(C)CC1C2CNC3(C(=O)NCCc4ccccc4)C(C2)CN(Cc2ccc(F)cc2)C13 (centres unmarked) [IB-725] | < 5
CC(C)CC[C@@H]1[C@@H]2CN[C@@]3(C(=O)NCc4ccccc4)[C@@H](C2)CN(CCC(=O)O)[C@@H]13 (relative stereo) [IB-694] | 10 to 30
O=C(O)CCNC(=O)C12NCC3CC1CN(Cc1ccc(F)cc1)C2C3Cc1cccc2ccccc12 (centres unmarked) [IB-384] | 10 to 30
CC(C)C[C@@H]1[C@@H]2CN[C@@]3(C(=O)NCc4ccc(O)cc4)[C@@H](C2)CN(CCc2ccccc2)[C@@H]13 (relative stereo) [IB-449] | 10 to 30
CC(C)CC1C2C3CNC1(C(=O)NCc1ccccc1)CC3CN2Cc1ccccc1 (centres unmarked) [IF-7] | 5 to 10
N=C(N)NCCCC1C2CNC3(C(=O)NCc4ccc(F)cc4)C(C2)CN(Cc2ccc(O)cc2)C13 (centres unmarked) [IB-207] | 10 to 30
CCCCCCNC(=O)[C@]12NC[C@@H]3C[C@H]1CN(Cc1ccccc1)[C@H]2[C@@H]3Cc1ccccc1 (relative stereo) [IB-562] | 10 to 30
CC(C)CCN1C[C@H]2C[C@]3(C(=O)NCCc4ccccc4)NC[C@H]2[C@H]1[C@H]3Cc1ccc(O)cc1 (relative stereo) [IF-545] | 10 to 30
CC(C)CNC(=O)[C@@]12C[C@@H]3CN(Cc4ccc(F)cc4)[C@@H]([C@@H]3CN1)[C@H]2CC(C)C (relative stereo) [IF-654] | < 5

Same assay, conditions: read-out: IC50

SMILES | IC50 [µM]
Cc1cccc(CNC(=O)[C@@]23C[C@@H]4CN(CC(C)C)[C@@H]([C@@H]4CN2)[C@H]3Cc2ccccc2)c1 (relative stereo) [IF-15] | 17.1
CC(C)CC1C2C3CNC1(C(=O)NCc1ccccc1)CC3CN2Cc1ccccc1 (centres unmarked) [IF-7] | 8.5

— patent publication EP4104902B1, “COMPOUNDS AND M[…] SAME” (priority 2020, dated 2021)
